# In article PMC6646405, “A quantitative, high-throughput method identifies protein–glycan interactions via mass spectrometry” (Communications Biology, 2019):
# Several values for one entry are separate records, joined by “and”; a condition that tells them apart may be missing. Identical values can stand only once.
# Columns and labels:
# [1] = system: family 51 carbohydrate binding module (CBM51); experiment: CUPRA library screening and affinity, CBM51; conditions: 25uM CBM51; mean of 4 DIi values, FigS3a
# Method: (§1) Unless otherwise noted, the measurements were performed at 25 °C. […] We identified specific ligands from the depletion index (DIi, Eq. 1) – the change in the fractional abundance (Fi, Eq. 2) ratio of ligand i-bound and free ^UniPproxy ions upon addition of GBP. Prior to calculating Fi, we treated each mass spectrum with the Sliding Window Adducts Removal Method (SWARM)[18] to remove contributions to the abundance of ^UniPproxy -OS^mod complex ions from adducts, formed by the ESI process, of neighbouring complex ions (Supplementary Fig. 2). Shown in Fig. 2a is a summary of the DIi measured by CUPRA screening of the 66-component library against S4 (50 μM). As expected, the average DIi for this negative control is close to 1.0 (0.99 ± 0.03). In contrast, CUPRA screening against the positive controls produced decreases in DIi for one or more of the library components. […] Application of CUPRA to human CD22, part of an important class of Neu5Ac-binding GBPs implicated in both innate and adaptive immunity, correctly identified HMO08 as a ligand (Supplementary Fig. 4a). CUPRA screening of MAA at high concentration (50 μM) identified HMO03 and GA06 as ligands. […]
# (§2) Using SWARM-treated mass spectra, DIi was calculated for each ligand from the ratio of the fractional abundances (Fi) of ligand (i)-bound and free ^UniPproxy ions in the presence (+GBP) and absence (-GBP) of GBP, Eqs. […]
# [2] = molecular target: Cholera toxin B subunit homopentamer (CTB5) (Vibrio cholerae serotype O1, UniProt P01556); type: binding
# [3] = molecular target: human carbonic anhydrase type 1 (Homo sapiens, UniProt P00915); experiment: Direct ESI-MS affinity of OSmod for the universal proxy protein (UniPproxy)
# [4] = molecular target: T1, human siglec-2 (CD22) (Homo sapiens, UniProt P20273); experiment: CUPRA library screening and affinity, siglec-2; type: binding; conditions: for average DI: mean of 4 DIi values
# T1 construct: Residues 1–332 of human Siglec-2 (MW 140 kDa, purity > 95%) were cloned in frame with human IgG1 Fc and a C-terminal His6; made in house
# T1 sequence (P20273 20-332): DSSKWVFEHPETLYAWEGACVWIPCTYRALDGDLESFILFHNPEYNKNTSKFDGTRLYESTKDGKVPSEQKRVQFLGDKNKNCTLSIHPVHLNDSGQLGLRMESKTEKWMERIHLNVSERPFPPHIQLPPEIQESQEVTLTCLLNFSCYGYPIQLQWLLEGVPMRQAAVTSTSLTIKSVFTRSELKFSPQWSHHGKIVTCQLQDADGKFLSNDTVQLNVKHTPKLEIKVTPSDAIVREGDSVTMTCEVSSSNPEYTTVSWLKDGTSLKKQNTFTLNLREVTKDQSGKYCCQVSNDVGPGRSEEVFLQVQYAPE
# [5] = molecular target: Sambucus nigra lectin (SNA) (Sambucus nigra, UniProt Q41358); type: binding
# [6] = system: Maackia amurensis lectins (MAA); experiment: CUPRA library screening and affinity, MAA; type: binding; conditions: 50uM MAA; mean of 4 DIi values, FigS3c
# Method: as §1, §2
# [7] = molecular target: streptavidin homotetramer (S4) (Streptomyces avidinii, UniProt P22629); experiment: CUPRA library screening against negative control streptavidin; type: binding; design: key: ratio change on GBP addition; ~1.0 = no binding (negative control); conditions: depletion index, 50 μM streptavidin
# Chain of streptavidin homotetramer (S4) (P22629 25-183): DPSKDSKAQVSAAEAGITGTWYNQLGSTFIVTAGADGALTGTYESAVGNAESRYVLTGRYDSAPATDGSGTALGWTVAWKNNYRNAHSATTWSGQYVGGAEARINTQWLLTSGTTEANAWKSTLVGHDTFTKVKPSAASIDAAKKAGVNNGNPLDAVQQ
# Chain of Cholera toxin B subunit homopentamer (CTB5) (P01556 22-124 limits assumed): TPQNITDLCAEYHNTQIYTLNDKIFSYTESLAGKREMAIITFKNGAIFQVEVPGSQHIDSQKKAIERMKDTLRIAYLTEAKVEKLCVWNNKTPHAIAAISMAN
# Chain of Sambucus nigra lectin (SNA) (Q41358 309-570 limits assumed): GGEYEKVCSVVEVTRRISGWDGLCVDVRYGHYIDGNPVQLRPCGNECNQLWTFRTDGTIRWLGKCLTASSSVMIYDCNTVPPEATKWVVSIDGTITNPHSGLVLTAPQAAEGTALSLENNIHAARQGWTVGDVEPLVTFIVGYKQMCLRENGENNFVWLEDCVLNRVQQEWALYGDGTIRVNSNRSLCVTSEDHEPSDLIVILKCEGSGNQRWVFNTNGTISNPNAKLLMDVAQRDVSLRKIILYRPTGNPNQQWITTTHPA
# Chain of Sambucus nigra lectin (SNA) (Q41358 29-289 partner limits assumed): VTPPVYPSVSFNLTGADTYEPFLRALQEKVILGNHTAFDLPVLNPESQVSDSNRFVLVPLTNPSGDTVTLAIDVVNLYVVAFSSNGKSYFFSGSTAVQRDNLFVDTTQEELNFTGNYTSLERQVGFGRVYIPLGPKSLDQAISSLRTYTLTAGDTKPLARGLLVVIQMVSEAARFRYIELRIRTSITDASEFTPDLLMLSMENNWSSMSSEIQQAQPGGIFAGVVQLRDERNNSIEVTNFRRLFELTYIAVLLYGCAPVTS
# Chain of human carbonic anhydrase type 1 (P00915 whole entry): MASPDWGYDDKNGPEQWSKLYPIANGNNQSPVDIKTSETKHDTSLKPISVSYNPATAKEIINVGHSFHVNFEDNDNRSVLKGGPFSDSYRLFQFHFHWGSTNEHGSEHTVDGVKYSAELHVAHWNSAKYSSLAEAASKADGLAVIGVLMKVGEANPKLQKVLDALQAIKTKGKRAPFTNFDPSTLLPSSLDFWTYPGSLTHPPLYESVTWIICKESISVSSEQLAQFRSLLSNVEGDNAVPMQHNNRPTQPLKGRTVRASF
structure (smiles),measurement,setting,value
"CC(=O)N(CCOCCOCCNC(=O)C(Cc1ccccc1)NC(=O)C(Cc1ccccc1)NC(=O)CCCC(=O)NCCc1ccc(S(N)(=O)=O)cc1)C1OC(CO)C(OC2OC(CO)C(O)C(O)C2O)C(O)C1O (stereo not drawn) [HMO01, Galβ1-4Glc-CL]",average DI,[1],1.026
same,DIi(2uM CTB5),[2],0.9935 and 0.9881 and 0.9983 and 0.9929
same,DIi(10uM CTB5),[2],0.9693 and 0.964 and 0.9533 and 0.9481
same,DIi(10uM CTB5 at 0C),[2],1.005 and 0.995 and 1.012 and 1.002
same,average DI,[2],0.9932 and 0.9587 and 1.004
same,Kd,[3],5.1 ± 1.4 µM
same,average DI,[4]; 25uM CD22,1.013
same,DIi(25uM CD22),"[4]; 25uM CD22, replicate column 1 of 4",1.023
same,DIi(25uM CD22),"[4]; 25uM CD22, replicate column 2 of 4",1.029
same,DIi(25uM CD22),"[4]; 25uM CD22, replicate column 3 of 4",0.9963
same,DIi(25uM CD22),"[4]; 25uM CD22, replicate column 4 of 4",1.002
same,average DI,[4]; 25uM CD22 at 0C,1.021
same,DIi(25uM CD22 at 0C),"[4]; 25uM CD22 at 0C, replicate column 1 of 4",1.003
same,DIi(25uM CD22 at 0C),"[4]; 25uM CD22 at 0C, replicate column 2 of 4",1.007
same,DIi(25uM CD22 at 0C),"[4]; 25uM CD22 at 0C, replicate column 3 of 4",1.036
same,DIi(25uM CD22 at 0C),"[4]; 25uM CD22 at 0C, replicate column 4 of 4",1.04
same,DIi(5uM SNA),[5],1.0284 and 1.03 and 1.033 and 1.035
same,average DI,[5],1.032
same,average DI,[6],1.065
same,average DI,[7]; mean of 4,0.9888
same,DIi(50uM S4),[7]; measurement 1 of 4,0.9878
same,DIi(50uM S4),[7]; measurement 2 of 4,0.986
same,DIi(50uM S4),[7]; measurement 3 of 4,0.9917
same,DIi(50uM S4),[7]; measurement 4 of 4,0.9898
